Experimental data taken from patent publication US20240067625A1, “SMALL-MOLECULE MODULATORS OF THE ORPHAN NUCLEAR RECEPTOR TLX” (priority 2020, published 2024).
pEC50: −log10 of the molar value.

Legend:
TLX LBD = TLX LBD (Homo sapiens (Human), UniProt Q9Y466); assay: ALPHA screen assay for TLX LBD and coactivator peptide recruitment; assay type: biochemical; details: for Normalized fold increase at 200 μM: Table 2; for pEC50 / Average ALPHA signal at 200 μM (std. dev.): Table 3; for Average ALPHA signal at 200 μM (std. dev.): mean (std. dev.)
Experimental: Assays were performed according to the manufacturer's protocol (PerkinElmer, USA), with the following modifications: Ligands were tested for TLX-coactivator binding in 50 mM phosphate buffer, 150 mM NaCl, pH 7, 1 mM DTT and 100 μM CHAPS. Ligands were dissolved and diluted in DMSO as stocks and were prepared in assay buffer from the original stock in the 100% DMSO and added to the assay plate. Biotinylated SRC peptide and polyhistidine tagged TLX LBD were diluted in assay buffer, subsequently added to respective ALPHA beads, under low light. The plates were spun down, mixed with a shaker and incubated for 120 minutes and read on a TECAN Plate reader using the manufacturer's protocol.

[1] = test system: neural stem and progenitor cells in the adult hippocampal neurogenic niche; assay: In vivo neurogenesis study: neural stem cell proliferation (CldU) after oral dosing; set-up: species or system C57BL/6J mice; details: 3 mg/kg oral gavage daily for 5 days; CldU labelling; FIG. 11
Experimental: Small Molecule Oral Gavage Delivery and Chloro-Deoxyuridine (CldU) Injections. Small molecule candidates (3 mg/kg of animal) were delivered through oral gavage to animals (N=3-4) each day at the same time for 5 consecutive days. On the final day, animals received four consecutive IP injections of CldU (85 mg/kg dissolved in sterile saline) 2 hr apart.
Immunohistochemistry. Animals were anesthetized and perfused transcardially with 30 ml of phosphate buffered saline (PBS) followed by 30 ml of 4% (w/v) ice cold paraformaldehyde (PFA) in PBS. Brains were post fixed in 4% PFA solution overnight at 4° C. PFA was replaced with PBS and tissues were kept at 4° C. for further use. Free floating serial sagittal sections of 50 μm thickness were cut using Vibratome 1500 sectioning system and collected in 5 parallel sets each containing 14 sections 250 μm apart from each other. […] Following initial permeabilization and blocking at room temperature (RT) for 2 hrs, sections were incubated with primary antibodies overnight at 4° C. Sections were then washed three times and incubated with fluorochrome-conjugated secondary antibodies for 2 hrs at RT. Sections were washed three times with PBS and mounted on slides with DakoCytomation Fluorescent Mounting Medium (DakoCytomation, Carpinteria, CA) as anti-fading agent.
Sections were counterstained with DAPI (5 μg/mL, Sigma) at 1:1000.
Confocal microscopy and stereology. Quantification and characterization of proliferating cell types was performed according to previously described optical dissector methods. […] An observer blind to experimental groups counted immunoreactive cells that had the mentioned properties below in every fifth sagittal section throughout the dentate gyrus. Neural stem cells were identified according to their triangular Sox2^+ nuclei located in SGZ with a GFAP^+ radial process spanning through granule cell layer.
For quantification that required analysis of phenotypic morphology and/or overlapping markers, 20 μm thick sections were scanned with confocal microscope (Zeiss LSM 710). 3D reconstruction and orthogonal views were acquired via ZEN2012 SP1 software (Zeiss, Thornwood, NY). Cells in the uppermost focal plane were excluded from the quantification. Total counts from 14 sections were multiplied by 10 to get the total number of cells in two dentate gyri. The ratio of CldU^+ cells among a certain cell type was calculated by dividing the CldU^+ cells by the total number of cells in that cell type.
Statistics. Statistical analysis was performed using GraphPad Prism 8.0 (GraphPad RRID:SCR_002798). Experiments involving 2 groups were compared using un-paired Student t-test. […]

human brain organoids = assay: TLX agonist activity in human brain organoids (RNA expression of NSC and immature neuron genes); assay type: cell-based; details: 25 μM for 3 days, organoids at 68 days; compared to controls; FIG. 13
From the text: Human induced pluripotent cells (iPSCs) were used to generate brain organoids using a modified Pasca protocol as previously described. See, Manganas, et al. (Sci Rep […], 11: 5546) and Pasca, et al. (Nat. Methods 2015, 12: 671-678), which are incorporated herein by reference. Within 2 months, the protocol produces organoids with a variety of cell types that mimic early human brain (neural stem cells, progenitors, different types of neurons at different maturation stage, astrocytes, oligodendrocytes). About 300 organoids can be generated per batch and thus the model provides for testing of different experimental paradigms in the same batch. Organoids were treated at 68-days with 25 μM of reference compound 29, test compounds 95 and […]), or vehicle (0.03N HCl) for 3 days, after which they were processed to examine the expression of NSC genes (PAX6, BLBP) and immature neuron genes (PROM1, DCX).

TLX LBD, sequence (Q9Y466 155-383): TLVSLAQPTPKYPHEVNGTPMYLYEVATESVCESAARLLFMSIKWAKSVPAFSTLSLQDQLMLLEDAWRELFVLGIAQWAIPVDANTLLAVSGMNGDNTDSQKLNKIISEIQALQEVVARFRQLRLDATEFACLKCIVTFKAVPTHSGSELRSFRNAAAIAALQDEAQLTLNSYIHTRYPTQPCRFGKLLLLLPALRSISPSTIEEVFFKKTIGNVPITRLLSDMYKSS

Structure (SMILES) | Normalized fold increase at 200 μM (TLX LBD) [X] | pEC50 (TLX LBD) | Average ALPHA signal at 200 μM (std. dev.) (TLX LBD) | cell proliferation of neural stem and progenitor cells in the adult hippocampal neurogenic niche [1] | expression of NSC genes (PAX6, BLBP) and immature neuron genes (PROM1, DCX) (human brain organoids)
CC(C)CCNc1ncccc1C(=O)N1CCN(Cc2ccccc2)C[C@@H]1C [Compound 4, (S)-(4-benzyl-2-methylpiperazin-1-yl)(2-(isopentylamino)pyridin-3-yl)methanone] | 2.29 | 10.53 | 2.29 (0.09) | increase in cell proliferation | –
CC(C)CCNc1ncccc1C(=O)N1CCN(Cc2ccccc2)C[C@H]1Cc1ccccc1 [Compound 95] | – | – | 2.37 (0.19) | – | substantially increased the expression levels of tested genes
CC(C)CCNc1ncccc1C(=O)N1CCN(Cc2ccccc2)[C@@H](C)C1 [Compound 2, (S)-(4-benzyl-3-methylpiperazin-1-yl)(2-(isopentylamino)pyridin-3-yl)methanone] | 2.45 | 10.20 | 2.45 (0.05) | increase in cell proliferation | –
CC(C)CCNc1ncccc1C(=O)N1CCN(Cc2ccccc2)C[C@@H]1Cc1ccccc1 [Compound 96] | – | 11.50 | 2.41 (0.07) | – | substantially increased the expression levels of tested genes
CC(C)CCNc1ncccc1C(=O)N1CCN(Cc2ccccc2)[C@H](C)C1 [Compound 1, (R)-(4-benzyl-3-methylpiperazin-1-yl)(2-(isopentylamino)pyridin-3-yl)methanone] | 1.97 | 10.07 | 1.97 (0.07) | increase in cell proliferation | –
CC(C)CCNc1ncccc1C(=O)N1CCN(Cc2ccccc2)C[C@H]1C [Compound 3, (R)-(4-benzyl-2-methylpiperazin-1-yl)(2-(isopentylamino)pyridin-3-yl)methanone] | 2.49 | 10.55 | 2.49 (0.12) | increase in cell proliferation | –
CC(C)CCNc1ncccc1C(=O)N1CCN(Cc2ccccc2)CC1 [Compound 29, (4-benzylpiperazin-1-yl)(2-(isopentylamino)pyridin-3-yl)methanone, reference compound] | – | 10.44 | 2.52 (0.09) | – | did not lead to a substantial difference in gene expression
CC(C)CCNc1ncccc1C(=O)N1CCN(Cc2ccccc2)[C@@H](C)[C@H]1CC(=O)O [Compound 77] | – | – | 1.09 (0.06) | – | –
CC(C)CCNc1ncccc1C(=O)N1CCN(Cc2ccccc2)[C@H](C)[C@@H]1CC(=O)O [Compound 79] | – | – | 1.23 (0.02) | – | –
CC(C)CCNc1ncccc1C(=O)N1C[C@@H](CC(=O)O)N(Cc2ccccc2)[C@@H](C)C1 [Compound 65] | – | – | 0.99 (0.04) | – | –
COC(=O)C[C@@H]1CN(Cc2ccccc2)[C@H](C)CN1C(=O)c1cccnc1NCCC(C)C [Compound 75] | – | 11.10 | 2.65 (0.04) | – | –
